These results are taken from paper PMC4915154, “Development of background-free tame fluorescent probes for intracellular live cell imaging” (Nature Communications, 2016).

SMILES strings stand for the structures.

Data set [1] deals with human histone H2B (H2B-mKate2 fusion with Azi at site 16) in U-2 OS cells. In words: Histone H2B imaging in live cells (Azi incorporated in H2B-mKate2). The format is cell-based. Conditions: live U-2 OS cells, 10 μM, 37 °C. The text has this:
The red fluorescent protein mKate2 was fused to the C terminus of human histone H2B as a red fluorescent marker. Using the in vivo unnatural amino acid (UAA) technology,[27][28] an azide-bearing UAA, p-azido-L-phenylalanine (Azi), was site-specifically incorporated at site 16 of mKate2 of the fusion protein H2B-mKate2, which was expressed in live U-2 OS cells. The cells were labelled with CO-1, washed to remove unreacted CO-1, and then imaged with laser scanning confocal microscopy.
U-2 OS cells were transfected with 1 μg DNA of each plasmid using Lipofectamine2000 in 35 mm glass bottom dishes according to the manufacturer protocol. Azi (purchased from Bachem) was added 1 h before transfection at a final concentration of 0.5 mM. Plasmid pIre-Azi3 (expressing the orthogonal amber suppressor transfer RNA (tRNA) and the E2AziRS specific for Azi) was co-transfected with plasmid pmH2B-6-mKate2-16tag in a 1:1 molar ratio. After 24 h, cells were washed three times with culture medium (DMEM with 10% FBS) (15 min each time). Growth media containing 10 μM CO-1 was then added to the dishes, and cells were incubated at 37 °C for 90 min followed by 4 times washing with growth media (30 min each time). Laser scanning confocal microscopy (Zeiss LSM 700) was used for imaging. The same conditions and settings were used for imaging control and experimental cells.
U-2 OS cells were transfected with plasmid pmH2B-6-mKate2. After 24 hours, cells were
labeled with 10 μM CO-1 for 90 minutes at 37 °C. Cells were washed to remove the unreacted
CO-1 and then imaged for mKate2 (red) and CO-1 (green) signals. Scale bar, 5 μm.
(1 picture or pasted object on this page, not shown here)

Data set [2] has as its system U-2 OS and CHO cell lines. In words: Cellular retention and efflux characteristics test (before/after washing imaging, retaining ratio RR). The format is cell-based, human (U-2 OS), Chinese hamster (CHO). Conditions: 30 min. The text has this:
To expedite an efficient strategy for ‘tame' probe development, we set up a system to predict cellular properties of fluorescent probes via phenotypic high-throughput screening (HTS), cheminformatics and statistical analysis (Fig. 1a). As the first step, we conducted phenotypic HTS to investigate cell permeability and nonspecific binding properties of the probes in a training set. We tested about 2,085 probes consisted of a wide range photophysical properties from numerous fluorophore cores such as BODIPY[12][13][14][15], xanthone, rosamine, cyanine[19][20] and ACEMAN[21]. Their cellular influx and efflux profiles were examined in two types of mammalian cells, U-2 OS and CHO. These cell lines were chosen due to their flexibility in genetic manipulation, adaptability to various culture conditions and versatility in wide biomedical research such as gene expression, toxicity screening, recombinant protein and live cell imaging. Each of the probes was added into live cells and cell image was taken after 30 min by ImageXpress Micro cellular imaging system (Molecular Device). The cells were then washed with fresh growth media, and after another 10 min, a second image was taken to check the completeness of probe washing out of the cell. The first and second imaging facilitated influx (before washing, BW) and efflux (after washing, AW) measurements, respectively (Supplementary Fig. 1).
To measure the influx and efflux of the probes, an automated quantitative intensity-based image analysis was then performed by Multi-Wavelength Cell Scoring analysis using MetaXpress High Content Image software. Retaining ratio (RR, per cent ratio of the average intensity of AW image over BW image) was computed to classify probes into the three phenotypic groups. For each cell in the image, the nuclei and cell region were segmented to provide approximate cellular boundaries. Fluorescence intensity was then quantified on a cell-by-cell basis by the following steps: (i) selecting the image of interest, (2) specifying the width of the stained cell area, (3) adjusting the intensity above local background for detection specificity, and (4) calculating fluorescence intensity with specified reporting parameters. Average fluorescence intensity for each BW and AW images was calculated for each probes and cell lines, and was then used as input in RR calculation (Supplementary Figs 2 and 3).
U-2 OS, a human osteosarcoma cell line, and CHO, a Chinese hamster ovary cell line, (from ATCC) were cultured in Dulbecco's modified eagle's medium (DMEM) (Invitrogen, CA, USA) supplemented with fetal bovine serum (FBS) (10%) and penicillin–streptomycin (1%). Materials used in the cell culture were purchased from Invitrogen. U-2 OS and CHO cells were seeded onto 96-well plate in growth media at 37 °C in the presence of 5% CO2 and were then allowed to attach and grow to 70–80% confluence. Library probes were dissolved in dimethylsulfoxide (DMSO) to make the 1 mM solution, and stored in −20 °C. Before HTS experiment, the growth media was aspirated and replaced by 200 μl fresh growth media containing probes in final concentration of 1 μM and nuclei dye Hoechst 33342. Plates were incubated for 30 min at 37 °C then were imaged using ImageXpress Micro cellular imaging system (Molecular Device) with × 10 objective lens. Immediately after image acquisition, the cells were washed with fresh growth media, and transferred back to a 37 °C cell incubator for further incubation. After 10 min, cells were again imaged (AW image). The first imaging step allowed influx measurement of BW image , while the second imaging step allowed out-flux measurement of AW image. Images of two regions per well were acquired with DAPI, FITC, TRITC or Texas Red filter sets according to probes' excitation and emission wavelength. Experiment was performed in duplicate. Cellular retention and efflux characteristics test for other synthesized probes were also done by using the same protocol. […]

As for `Cc1cc(C)n2c1C(CCNC(=O)CCC(=O)OCC1C3CCC#CCCC31)=C1C=CC=[N+]1[B-]2(F)F` (centres unmarked) [CO-1], in data set [1] (90 min), the “Labelling of Azi-bearing histone H2B-mKate2” value is given as “specific labelling of histone H2B” and the Nuclear membrane permeability result is given as “pass through nuclear membrane”. In data set [1] (90 minutes), the “Labelling of wild type H2B-mKate2 (control without Azi)” value is reported as “did not label wild type H2B-mKate2”. In addition, the “Cellular retention after washing (probe signal)” value in data set [2] (CHO and U-2 OS cells, 1 uM probe) is listed as “leave the cells after washing”. For the same compound, the Experimentally observed group entry in data set [2] (U-2 OS and CHO cell lines, probe 1 μM, imaged before and 10 min after washing) was “L-group (Probes (FI(BW) >200) with rapid efflux were observed to have a RR of <5%, and thus were classified into L-group)”.
